Data from patent US10815230B2, “Casein kinase 1 delta inhibitor” (ELECTROPHORETICS LIMITED, priority 2015, dated 2020).

Assays:
Test in all cases: KINOMEscan binding assay
Settings in all cases: read-out: % Ctrl @ 10000 nM
MAPKAPK2 = target: T1, MAPKAPK2 (Homo sapiens, UniProt P49137)
T1 construct: T7 phage fusion (most assays) or DNA label after HEK293 expression; purchased DiscoveRx (KINOMEscan, LeadHunter Discovery services); host or cells: T7 phage in E. coli (BL21-derived) or HEK293

MYLK2 = MYLK2 (Homo sapiens, UniProt Q9H1R3)
TXK = TXK (Homo sapiens, UniProt P42681)
EPHA1 = EPHA1 (Homo sapiens, UniProt P21709)
Sequence of EPHA1 (P21709 26-976): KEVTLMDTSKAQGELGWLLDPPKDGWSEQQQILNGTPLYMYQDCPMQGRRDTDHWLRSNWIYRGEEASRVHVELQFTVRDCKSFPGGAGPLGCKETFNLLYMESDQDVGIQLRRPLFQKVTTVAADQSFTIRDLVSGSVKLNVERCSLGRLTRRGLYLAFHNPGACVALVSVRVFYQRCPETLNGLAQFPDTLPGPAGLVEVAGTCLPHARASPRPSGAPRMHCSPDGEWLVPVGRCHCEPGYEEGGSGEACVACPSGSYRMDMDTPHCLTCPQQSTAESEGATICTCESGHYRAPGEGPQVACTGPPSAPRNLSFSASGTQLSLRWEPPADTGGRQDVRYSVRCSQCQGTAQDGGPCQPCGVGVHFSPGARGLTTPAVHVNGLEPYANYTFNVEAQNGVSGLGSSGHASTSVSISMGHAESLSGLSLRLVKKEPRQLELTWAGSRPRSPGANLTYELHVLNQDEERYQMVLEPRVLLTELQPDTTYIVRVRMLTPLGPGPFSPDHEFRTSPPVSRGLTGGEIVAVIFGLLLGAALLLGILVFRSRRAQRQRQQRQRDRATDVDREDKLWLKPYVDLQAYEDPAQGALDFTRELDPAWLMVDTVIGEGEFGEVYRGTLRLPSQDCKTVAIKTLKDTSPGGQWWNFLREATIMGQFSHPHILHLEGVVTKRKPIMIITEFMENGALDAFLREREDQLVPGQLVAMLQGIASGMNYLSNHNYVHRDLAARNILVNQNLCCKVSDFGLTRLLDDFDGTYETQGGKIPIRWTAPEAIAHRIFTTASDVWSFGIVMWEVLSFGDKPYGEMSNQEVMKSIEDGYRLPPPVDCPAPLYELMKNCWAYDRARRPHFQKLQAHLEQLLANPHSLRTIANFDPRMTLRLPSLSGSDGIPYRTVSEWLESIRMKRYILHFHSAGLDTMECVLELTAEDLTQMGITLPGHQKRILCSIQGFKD

MUSK = MUSK (Homo sapiens, UniProt O15146)
NEK5 = NEK5 (Homo sapiens, UniProt Q6P3R8)
[1] = target: RSK2 Kin.Dom.1-N-terminal (Homo sapiens, UniProt P51812)
ZAP70 = target: T2, ZAP70 (Homo sapiens, UniProt P43403)
T2 construct: purchased DiscoveRx (KINOMEscan, LeadHunter Discovery services)
T2 sequence (P43403 whole entry): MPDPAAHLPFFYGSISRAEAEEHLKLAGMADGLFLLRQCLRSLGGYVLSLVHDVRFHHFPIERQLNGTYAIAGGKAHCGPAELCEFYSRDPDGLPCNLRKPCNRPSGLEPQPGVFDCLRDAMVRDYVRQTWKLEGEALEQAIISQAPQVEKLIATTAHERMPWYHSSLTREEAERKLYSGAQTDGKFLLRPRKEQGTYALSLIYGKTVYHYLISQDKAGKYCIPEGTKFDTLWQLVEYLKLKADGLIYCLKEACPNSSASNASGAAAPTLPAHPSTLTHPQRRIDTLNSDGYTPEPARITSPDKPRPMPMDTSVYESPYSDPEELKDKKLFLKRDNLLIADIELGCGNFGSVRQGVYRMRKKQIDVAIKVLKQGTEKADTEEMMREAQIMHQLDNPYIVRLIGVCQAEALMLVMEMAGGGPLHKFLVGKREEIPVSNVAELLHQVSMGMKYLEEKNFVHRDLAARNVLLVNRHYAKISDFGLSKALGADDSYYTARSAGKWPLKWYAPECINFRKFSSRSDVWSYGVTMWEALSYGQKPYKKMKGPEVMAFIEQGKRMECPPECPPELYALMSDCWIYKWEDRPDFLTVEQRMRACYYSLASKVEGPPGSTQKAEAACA

PRKR = PRKR (Homo sapiens, UniProt P19525)
YSK4 = target: T3, YSK4 (Homo sapiens, UniProt Q56UN5)
T3 construct: purchased DiscoveRx (KINOMEscan, LeadHunter Discovery services)

MARK1 = MARK1 (Homo sapiens, UniProt Q9P0L2)
EPHA3 = EPHA3 (Homo sapiens, UniProt P29320)
ROCK2 = ROCK2 (Homo sapiens, UniProt O75116)
BUB1 = BUB1 (Homo sapiens, UniProt O43683)
DYRK1A = DYRK1A (Homo sapiens, UniProt Q13627)
EGFR (L858R) = EGFR (L858R) (Homo sapiens, UniProt P00533, L858R)
PIK3CA (I800L) = PIK3CA (I800L) (Homo sapiens, UniProt P42336, I800L)
QSK = QSK (Homo sapiens, UniProt Q9Y2K2)
FYN = FYN (Homo sapiens, UniProt P06241)
FGFR3 (G697C) = FGFR3 (G697C) (Homo sapiens, UniProt P22607, G697C)
CDKL1 = CDKL1 (Homo sapiens, UniProt Q00532)
Sequence of CDKL1 (Q00532 whole entry): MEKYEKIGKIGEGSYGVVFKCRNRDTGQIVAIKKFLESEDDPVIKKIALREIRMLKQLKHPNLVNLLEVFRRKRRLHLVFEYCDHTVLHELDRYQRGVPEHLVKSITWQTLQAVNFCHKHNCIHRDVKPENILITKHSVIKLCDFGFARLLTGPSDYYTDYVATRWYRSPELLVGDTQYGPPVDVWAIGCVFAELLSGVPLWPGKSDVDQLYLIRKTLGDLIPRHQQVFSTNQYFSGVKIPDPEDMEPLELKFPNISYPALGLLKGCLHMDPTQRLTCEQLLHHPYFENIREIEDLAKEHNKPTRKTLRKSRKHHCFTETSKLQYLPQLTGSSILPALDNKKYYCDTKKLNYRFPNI

MAP4K2 = target: T4, MAP4K2 (Homo sapiens, UniProt Q12851)
T4 construct: T7 phage fusion (most assays) or DNA label after HEK293 expression; purchased DiscoveRx (KINOMEscan, LeadHunter Discovery services); host or cells: T7 phage in E. coli (BL21-derived) or HEK293

CDK2 = CDK2 (Homo sapiens, UniProt P24941)
DLK = DLK (Homo sapiens, UniProt Q12852)
PRKCI = PRKCI (Homo sapiens, UniProt P41743)
FLT4 = FLT4 (Homo sapiens, UniProt P35916)
TTK = TTK (Homo sapiens, UniProt P33981)
CSNK1D = CSNK1D (Homo sapiens, UniProt P48730)
STK33 = STK33 (Homo sapiens, UniProt Q9BYT3)
Sequence of STK33 (Q9BYT3 whole entry): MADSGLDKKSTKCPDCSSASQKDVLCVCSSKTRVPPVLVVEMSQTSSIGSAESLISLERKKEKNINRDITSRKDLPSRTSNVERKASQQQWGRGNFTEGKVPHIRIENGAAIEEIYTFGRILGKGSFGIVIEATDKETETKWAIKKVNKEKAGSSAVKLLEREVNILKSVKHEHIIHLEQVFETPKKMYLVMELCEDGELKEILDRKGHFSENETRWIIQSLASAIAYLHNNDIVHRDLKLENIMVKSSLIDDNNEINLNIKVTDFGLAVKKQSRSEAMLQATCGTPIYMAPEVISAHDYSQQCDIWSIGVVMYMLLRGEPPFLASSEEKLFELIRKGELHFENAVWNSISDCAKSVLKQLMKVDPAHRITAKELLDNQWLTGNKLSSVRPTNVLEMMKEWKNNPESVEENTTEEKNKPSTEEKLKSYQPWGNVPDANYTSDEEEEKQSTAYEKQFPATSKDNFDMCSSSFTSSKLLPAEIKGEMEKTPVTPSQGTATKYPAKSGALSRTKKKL

MST2 = MST2 (Homo sapiens, UniProt Q13188)
MARK3 = MARK3 (Homo sapiens, UniProt P27448)
TRKA = TRKA (Homo sapiens, UniProt P04629)
Sequence of TRKA (P04629 33-796): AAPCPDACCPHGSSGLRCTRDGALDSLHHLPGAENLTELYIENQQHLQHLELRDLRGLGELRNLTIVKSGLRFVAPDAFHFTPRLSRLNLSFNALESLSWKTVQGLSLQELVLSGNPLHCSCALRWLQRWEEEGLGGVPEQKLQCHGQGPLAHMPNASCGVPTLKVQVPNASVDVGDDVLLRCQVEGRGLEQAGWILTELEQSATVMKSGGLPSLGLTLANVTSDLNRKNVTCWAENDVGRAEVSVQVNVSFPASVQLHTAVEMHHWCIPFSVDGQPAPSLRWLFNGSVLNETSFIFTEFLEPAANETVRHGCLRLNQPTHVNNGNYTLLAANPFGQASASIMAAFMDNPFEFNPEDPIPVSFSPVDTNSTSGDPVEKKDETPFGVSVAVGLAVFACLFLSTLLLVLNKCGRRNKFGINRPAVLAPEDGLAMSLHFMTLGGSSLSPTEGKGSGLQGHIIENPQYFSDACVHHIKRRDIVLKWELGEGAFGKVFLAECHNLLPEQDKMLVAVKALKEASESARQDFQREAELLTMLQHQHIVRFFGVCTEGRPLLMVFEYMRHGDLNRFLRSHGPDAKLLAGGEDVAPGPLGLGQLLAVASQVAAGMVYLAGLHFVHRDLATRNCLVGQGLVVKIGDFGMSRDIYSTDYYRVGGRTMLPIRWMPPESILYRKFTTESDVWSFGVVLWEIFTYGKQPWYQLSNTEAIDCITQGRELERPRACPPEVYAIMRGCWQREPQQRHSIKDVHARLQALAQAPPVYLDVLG

MAP3K1 = target: T5, MAP3K1 (Homo sapiens, UniProt Q13233)
T5 construct: T7 phage fusion (most assays) or DNA label after HEK293 expression; purchased DiscoveRx (KINOMEscan, LeadHunter Discovery services); host or cells: T7 phage in E. coli (BL21-derived) or HEK293

MLK2 = MLK2 (Homo sapiens, UniProt Q02779)
MEK3 = MEK3 (Homo sapiens, UniProt P46734)
DYRK1B = DYRK1B (Homo sapiens, UniProt Q9Y463)
EGFR (T790M) = EGFR (T790M) (Homo sapiens, UniProt P00533, T790M)
JNK1 = JNK1 (Homo sapiens, UniProt P45983)
SRPK1 = SRPK1 (Homo sapiens, UniProt Q96SB4)
Sequence of SRPK1 (Q96SB4 whole entry): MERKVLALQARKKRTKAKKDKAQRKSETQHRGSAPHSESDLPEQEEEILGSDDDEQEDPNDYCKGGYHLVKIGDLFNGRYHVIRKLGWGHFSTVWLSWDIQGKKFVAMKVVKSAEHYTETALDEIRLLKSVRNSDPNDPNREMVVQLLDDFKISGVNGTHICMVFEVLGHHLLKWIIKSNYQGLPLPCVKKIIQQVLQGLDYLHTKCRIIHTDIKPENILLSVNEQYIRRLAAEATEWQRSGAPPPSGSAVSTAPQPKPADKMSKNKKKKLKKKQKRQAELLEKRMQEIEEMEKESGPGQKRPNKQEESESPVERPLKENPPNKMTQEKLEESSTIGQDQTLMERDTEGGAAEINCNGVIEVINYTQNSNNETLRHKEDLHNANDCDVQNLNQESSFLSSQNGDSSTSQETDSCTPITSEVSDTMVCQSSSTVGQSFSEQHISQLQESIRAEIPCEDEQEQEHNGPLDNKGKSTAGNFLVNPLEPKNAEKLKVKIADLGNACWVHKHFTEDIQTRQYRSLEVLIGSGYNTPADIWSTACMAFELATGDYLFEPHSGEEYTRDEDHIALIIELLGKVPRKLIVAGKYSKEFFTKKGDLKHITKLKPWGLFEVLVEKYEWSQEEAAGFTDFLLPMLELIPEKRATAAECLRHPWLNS

RIPK1 = RIPK1 (Homo sapiens, UniProt Q13546)
FAK = FAK (Homo sapiens, UniProt Q05397)
Sequence of FAK (Q05397 whole entry): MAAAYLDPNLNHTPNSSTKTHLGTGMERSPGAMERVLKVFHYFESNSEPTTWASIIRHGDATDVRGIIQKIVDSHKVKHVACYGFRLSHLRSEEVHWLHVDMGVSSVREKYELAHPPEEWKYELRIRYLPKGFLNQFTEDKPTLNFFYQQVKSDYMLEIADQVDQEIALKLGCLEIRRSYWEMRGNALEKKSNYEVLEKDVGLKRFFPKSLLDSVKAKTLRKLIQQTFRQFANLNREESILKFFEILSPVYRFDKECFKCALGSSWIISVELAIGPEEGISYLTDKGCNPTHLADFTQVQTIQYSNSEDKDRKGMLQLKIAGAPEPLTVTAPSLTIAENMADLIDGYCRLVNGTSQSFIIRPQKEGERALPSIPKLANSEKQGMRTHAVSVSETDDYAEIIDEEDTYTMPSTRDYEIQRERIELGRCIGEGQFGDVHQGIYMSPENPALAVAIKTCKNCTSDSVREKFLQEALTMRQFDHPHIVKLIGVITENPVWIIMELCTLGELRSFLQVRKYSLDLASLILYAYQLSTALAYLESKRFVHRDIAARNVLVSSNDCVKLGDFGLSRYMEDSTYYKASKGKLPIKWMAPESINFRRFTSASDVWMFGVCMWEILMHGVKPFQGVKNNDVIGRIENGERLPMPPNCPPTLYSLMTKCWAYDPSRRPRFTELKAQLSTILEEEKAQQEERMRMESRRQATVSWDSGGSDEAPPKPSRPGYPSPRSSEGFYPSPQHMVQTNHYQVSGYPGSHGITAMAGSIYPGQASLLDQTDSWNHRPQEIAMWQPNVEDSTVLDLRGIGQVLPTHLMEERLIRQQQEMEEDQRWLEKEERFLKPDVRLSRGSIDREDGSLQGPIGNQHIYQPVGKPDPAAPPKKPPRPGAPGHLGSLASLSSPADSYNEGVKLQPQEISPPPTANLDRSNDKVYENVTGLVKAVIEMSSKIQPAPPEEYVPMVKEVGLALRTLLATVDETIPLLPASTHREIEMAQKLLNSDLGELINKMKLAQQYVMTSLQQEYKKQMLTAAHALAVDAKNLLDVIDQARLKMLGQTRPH

CDK4-cyclinD1 = CDK4-cyclinD1 (Homo sapiens, UniProt P11802)

## Nc1ncc(-c2nc3ccccc3o2)c(-c2ccncc2)n1 [Comparative Compound 324, 5-(1,3-benzoxazol-2-yl)-4-(pyridine-4-yl)pyrimidin-2-amine]
MAPKAPK2
  remaining binding at 10 µM: 100%
MYLK2
  remaining binding at 10 µM: 100%
TXK
  remaining binding at 10 µM: 93%
EPHA1
  remaining binding at 10 µM: 83%
MUSK
  remaining binding at 10 µM: 100%
NEK5
  remaining binding at 10 µM: 100%
[1]
  remaining binding at 10 µM: 80%
ZAP70
  remaining binding at 10 µM: 78%
PRKR
  remaining binding at 10 µM: 96%
YSK4
  remaining binding at 10 µM: 88%
MARK1
  remaining binding at 10 µM: 100%
EPHA3
  remaining binding at 10 µM: 86%
ROCK2
  remaining binding at 10 µM: 83%
BUB1
  remaining binding at 10 µM: 44%
DYRK1A
  remaining binding at 10 µM: 87%
EGFR (L858R)
  remaining binding at 10 µM: 76%
PIK3CA (I800L)
  remaining binding at 10 µM: 52%
QSK
  remaining binding at 10 µM: 99%
FYN
  remaining binding at 10 µM: 60%
FGFR3 (G697C)
  remaining binding at 10 µM: 76%
CDKL1
  remaining binding at 10 µM: 68%
MAP4K2
  remaining binding at 10 µM: 100%
CDK2
  remaining binding at 10 µM: 100%
DLK
  remaining binding at 10 µM: 91%
PRKCI
  remaining binding at 10 µM: 65%
FLT4
  remaining binding at 10 µM: 79%
TTK
  remaining binding at 10 µM: 100%
CSNK1D
  remaining binding at 10 µM: 3.8%
STK33
  remaining binding at 10 µM: 77%
MST2
  remaining binding at 10 µM: 94%
MARK3
  remaining binding at 10 µM: 100%
TRKA
  remaining binding at 10 µM: 77%
MAP3K1
  remaining binding at 10 µM: 85%
MLK2
  remaining binding at 10 µM: 100%
MEK3
  remaining binding at 10 µM: 80%
DYRK1B
  remaining binding at 10 µM: 97%
EGFR (T790M)
  remaining binding at 10 µM: 88%
JNK1
  remaining binding at 10 µM: 52%
SRPK1
  remaining binding at 10 µM: 64%
RIPK1
  remaining binding at 10 µM: 100%
FAK
  remaining binding at 10 µM: 99%
CDK4-cyclinD1
  remaining binding at 10 µM: 85%

## CNc1c(C(N)=O)c2ccccn2c1C(=O)c1ccc(F)cc1 [Compound A, 2-methyl-amino-3-[(4-fluorophenyl)carbonyl]indolizine-1-carboxamide]
MAPKAPK2
  remaining binding at 10 µM: 100%
MYLK2
  remaining binding at 10 µM: 100%
TXK
  remaining binding at 10 µM: 45%
EPHA1
  remaining binding at 10 µM: 72%
MUSK
  remaining binding at 10 µM: 96%
NEK5
  remaining binding at 10 µM: 91%
[1]
  remaining binding at 10 µM: 59%
ZAP70
  remaining binding at 10 µM: 93%
PRKR
  remaining binding at 10 µM: 90%
YSK4
  remaining binding at 10 µM: 73%
MARK1
  remaining binding at 10 µM: 99%
EPHA3
  remaining binding at 10 µM: 68%
ROCK2
  remaining binding at 10 µM: 71%
BUB1
  remaining binding at 10 µM: 44%
DYRK1A
  remaining binding at 10 µM: 74%
EGFR (L858R)
  remaining binding at 10 µM: 25%
PIK3CA (I800L)
  remaining binding at 10 µM: 72%
QSK
  remaining binding at 10 µM: 82%
FYN
  remaining binding at 10 µM: 33%
FGFR3 (G697C)
  remaining binding at 10 µM: 71%
CDKL1
  remaining binding at 10 µM: 61%
MAP4K2
  remaining binding at 10 µM: 100%
CDK2
  remaining binding at 10 µM: 85%
DLK
  remaining binding at 10 µM: 84%
PRKCI
  remaining binding at 10 µM: 69%
FLT4
  remaining binding at 10 µM: 62%
TTK
  remaining binding at 10 µM: 92%
CSNK1D
  remaining binding at 10 µM: 1.4%
STK33
  remaining binding at 10 µM: 72%
MST2
  remaining binding at 10 µM: 89%
MARK3
  remaining binding at 10 µM: 88%
TRKA
  remaining binding at 10 µM: 86%
MAP3K1
  remaining binding at 10 µM: 76%
MLK2
  remaining binding at 10 µM: 91%
MEK3
  remaining binding at 10 µM: 60%
DYRK1B
  remaining binding at 10 µM: 89%
EGFR (T790M)
  remaining binding at 10 µM: 65%
JNK1
  remaining binding at 10 µM: 45%
SRPK1
  remaining binding at 10 µM: 49%
RIPK1
  remaining binding at 10 µM: 99%
FAK
  remaining binding at 10 µM: 92%
CDK4-cyclinD1
  remaining binding at 10 µM: 47%
